Structures are written as SMILES.

In assay [1] the test system is CCRF-CEM. Kind of assay: Anticancer activity against CCRF-CEM cells. In kind it is functional. To be noted: Homo sapiens.
Assay [2] relates to K562. As to the kind of experiment: Anticancer activity against K562 cells. In kind it is functional. To be noted: Homo sapiens.
Assay [3] concerns MOLT-4. Kind of assay: Anticancer activity against MOLT4 cells. In kind it is functional. To be noted: Homo sapiens.
The subject of assay [4] is SR. As to the kind of experiment: Anticancer activity against SR cells. In kind it is functional. To be noted: Homo sapiens.
Assay [5] is described as follows: Anticancer activity against leukemia cells. In kind it is functional. To be noted: Homo sapiens, Leukemia cell.
A short description of assay [6]: Anticancer activity against nonsmall lung cancer cells. In kind it is functional. To be noted: Homo sapiens, Cancer cell lines.
Assay [7] in a line: Anticancer activity against colon cancer cells. In kind it is functional. To be noted: Homo sapiens, Cancer cell lines.
Assay [8] in a line: Anticancer activity against CNS cancer cells. In kind it is functional. To be noted: Homo sapiens, Cancer cell lines.
The nature of assay [9]: Anticancer activity against melanoma cells. In kind it is functional. To be noted: Homo sapiens, Melanoma cell.
Assay [10] is described as follows: Anticancer activity against ovarian cancer cells. In kind it is functional. To be noted: Homo sapiens, Cancer cell lines.
A short description of assay [11]: Anticancer activity against renal cancer cells. In kind it is functional. To be noted: Homo sapiens, Cancer cell lines.
Assay [12] can be described thus: Anticancer activity against prostate cancer cells. In kind it is functional. To be noted: Homo sapiens, Cancer cell lines.
The nature of assay [13]: Anticancer activity against breast cancer cells. In kind it is functional. To be noted: Homo sapiens, Cancer cell lines.
Assay [14] can be described thus: Anticancer activity against human NCI60 cells. In kind it is functional. To be noted: for CC50: read-out: LC50 (the source's name).
Assay [15] deals with HL-60. As to the kind of experiment: Anticancer activity against HL60 cells. In kind it is functional. To be noted: Homo sapiens.
Assay [16] concerns NCI-H460. Kind of assay: Growth inhibition of NCI-H460 cells at 100 uM after 48 hrs. In kind it is functional, Homo sapiens. Further details: scale not given: the % may be the effect or the level left.
Assay [17] deals with MCF7. As to the kind of experiment: Growth inhibition of MCF7 cells at 100 uM after 48 hrs. In kind it is functional, Homo sapiens. On the set-up: scale not given: the % may be the effect or the level left.
In assay [18] the test system is SF-268. Kind of assay: Growth inhibition of SF268 cells at 100 uM after 48 hrs. In kind it is functional, Homo sapiens. On the set-up: scale not given: the % may be the effect or the level left.

As for `O=C(c1cccs1)c1c(C(F)(F)F)[n+]([O-])c2cc(Cl)c(Cl)cc2[n+]1[O-]`, the GI50 in assay [1] was under 10 nM; in [2] it was under 10 nM; in assay [3], under 10 nM; in assay [4], under 10 nM; in [5], 20 nM; in [6], 2040 nM. Also, the concentration for 50% growth inhibition (GI50) in assay [7] worked out at 590 nM; in assay [8], 670 nM; in assay [9], 940 nM; in assay [10] it was 1160 nM; in assay [11] it was 1600 nM; in assay [12], 790 nM. The GI50 came to 790 nM in assay [13] and 740 nM in [14]. In addition, the TGI in assay [14] amounted to 3020 nM. In [14], the CC50 was 11000 nM.
Turning to `O=C(c1cccs1)c1c(C(F)(F)F)[n+]([O-])c2cc(C(F)(F)F)ccc2[n+]1[O-]`, the GI50 is 70 nM in assay [1]; 20 nM in assay [3]; 20 nM in assay [4]; under 10 nM in assay [15]; 30 nM in [5]; 300 nM in assay [6]. In addition, the GI50 in [7] came out at 150 nM; in assay [8] it was 180 nM; in assay [9], 330 nM; in assay [10], 200 nM; in [11] it was 240 nM; in [12], 150 nM. The 50% growth inhibitory concentration (GI50) in assay [13] and in assay [14] was 180 nM throughout. In [14], this compound showed a TGI of 470 nM. Moreover, the CC50 in assay [14] came out at 1480 nM.
Regarding `COc1ccc2c(c1)[n+]([O-])c(C(=O)c1ccc3ccccc3c1)c(C(F)(F)F)[n+]2[O-]`, the Activity in [16], in assay [17] and in assay [18] was under 32% in each case. Moreover, the concentration for 50% growth inhibition (GI50) in assay [6] amounted to 800 nM.

These data come from ChEMBL document CHEMBL1137558, “Synthesis and biological evaluation of new 2-arylcarbonyl-3-trifluoromethylquinoxaline 1,4-di-N-oxide derivatives and their reduced analogues” (2007).
